Measured values as given in patent US20120165331A1, “Di/tri-aza-spiro-C9-C11alkanes” (priority 2010, published 2012).

Assays:
human orexin 1 receptor = molecular target: T1, human orexin 1 receptor (Homo sapiens, UniProt O43613); assay: Calcium accumulation in cells (FLIPR), antagonism of orexin A, human orexin 1 receptor; assay type: cell-based; details: for inhibition at 10 µM: measured at a concentration of 10 μM of compound, read-out: FLIPR hOx1R % inhibition; for Ki: calcium accumulation, antagonism of orexin A, Cheng-Prusoff corrected, read-out: FLIPR hOx1R Ki
T1 construct: expressed in transfected cells
T1 sequence (O43613 1-425): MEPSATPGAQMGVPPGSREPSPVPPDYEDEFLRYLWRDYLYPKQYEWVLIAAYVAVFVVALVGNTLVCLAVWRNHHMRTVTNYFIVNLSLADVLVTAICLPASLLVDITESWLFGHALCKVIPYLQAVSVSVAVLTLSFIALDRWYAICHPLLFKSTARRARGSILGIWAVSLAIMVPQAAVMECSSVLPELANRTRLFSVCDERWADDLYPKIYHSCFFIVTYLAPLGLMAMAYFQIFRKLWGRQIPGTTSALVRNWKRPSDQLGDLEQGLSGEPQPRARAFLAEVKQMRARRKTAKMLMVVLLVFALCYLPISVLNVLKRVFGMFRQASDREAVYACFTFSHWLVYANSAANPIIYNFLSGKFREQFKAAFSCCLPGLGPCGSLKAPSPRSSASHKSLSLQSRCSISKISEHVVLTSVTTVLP

human orexin 2 receptor = molecular target: T2, human orexin 2 receptor (Homo sapiens, UniProt O43614); assay: Calcium accumulation in cells (FLIPR), antagonism of orexin A, human orexin 2 receptor; assay type: cell-based; details: for Ki: calcium accumulation, antagonism of orexin A, Cheng-Prusoff corrected, read-out: FLIPR hOx2R Ki; for inhibition at 10 µM: measured at a concentration of 10 μM of compound, read-out: FLIPR hOx2R % inhibition
T2 construct: expressed in transfected cells
T2 sequence (O43614 1-444): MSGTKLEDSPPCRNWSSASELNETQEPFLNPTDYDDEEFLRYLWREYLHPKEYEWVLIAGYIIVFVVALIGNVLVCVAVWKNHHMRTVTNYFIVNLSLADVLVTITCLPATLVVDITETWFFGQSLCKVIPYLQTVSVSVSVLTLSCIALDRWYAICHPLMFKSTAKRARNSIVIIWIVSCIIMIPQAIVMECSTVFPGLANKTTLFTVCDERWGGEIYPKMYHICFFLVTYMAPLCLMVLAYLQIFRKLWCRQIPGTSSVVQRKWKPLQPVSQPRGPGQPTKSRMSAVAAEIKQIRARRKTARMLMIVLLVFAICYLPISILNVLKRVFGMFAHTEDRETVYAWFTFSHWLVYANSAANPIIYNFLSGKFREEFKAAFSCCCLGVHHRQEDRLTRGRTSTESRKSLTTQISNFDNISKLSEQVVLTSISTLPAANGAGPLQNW

Cc1cc(C)nc(N2CCC3(CC2)NCN(Cc2c[nH]c4ccccc24)C3=O)n1 [Example 4.1, 3-((1H-indol-3-yl)methyl)-8-(4,6-dimethylpyrimidin-2-yl)-1,3,8-triazaspiro[4.5]decan-4-one]
inhibition at 10 µM (human orexin 1 receptor): 12%
Ki (human orexin 2 receptor): 2120 nM

COc1ccnc(N2CCC3(CCN(Cc4c[nH]c5ccccc45)C3=O)C2)n1 (stereo not shown) [Example 5.1, 2-((1H-indol-3-yl)methyl)-7-(4-methoxypyrimidin-2-yl)-2,7-diazaspiro[4.4]nonan-1-one]
Ki (human orexin 1 receptor): 2140 nM
Ki (human orexin 2 receptor): 132 nM

COc1ccnc(N2CC[C@@]3(CCN(Cc4c[nH]c5ccccc45)C3=O)C2)n1 [Example 5.2, (R)-2-((1H-indol-3-yl)methyl)-7-(4-methoxypyrimidin-2-yl)-2,7-diazaspiro[4.4]nonan-1-one]
inhibition at 10 µM (human orexin 1 receptor): 49%
Ki (human orexin 2 receptor): 1260 nM

COc1ccnc(N2CC[C@]3(CCN(Cc4c[nH]c5ccccc45)C3=O)C2)n1 [Example 5.3, (S)-2-((1H-indol-3-yl)methyl)-7-(4-methoxypyrimidin-2-yl)-2,7-diazaspiro[4.4]nonan-1-one]
Ki (human orexin 1 receptor): 2640 nM
Ki (human orexin 2 receptor): 103 nM

COc1cc(C)nc(N2CCC3(CCN(Cc4c[nH]c5ccccc45)C3=O)C2)n1 (stereo not shown) [Example 5.4, 2-((1H-indol-3-yl)methyl)-7-(4-methoxy-6-methylpyrimidin-2-yl)-2,7-diazaspiro[4.4]nonan-1-one]
Ki (human orexin 1 receptor): 1050 nM
Ki (human orexin 2 receptor): 119 nM

O=C1N(Cc2c[nH]c3ccccc23)CCC12CCN(c1cnc3ccccc3n1)C2 (stereo not shown) [Example 5.5, 2-((1H-Indol-3-yl)methyl)-7-(quinoxalin-2-yl)-2,7-diazaspiro[4.4]nonan-1-one]
Ki (human orexin 1 receptor): 1230 nM
Ki (human orexin 2 receptor): 430 nM

Cc1ccnc(N2CCC3(CCN(Cc4c[nH]c5ccccc45)C3=O)C2)n1 (stereo not shown) [Example 5.6, 2-((1H-Indol-3-yl)methyl)-7-(4-methylpyrimidin-2-yl)-2,7-diazaspiro[4.4]nonan-1-one]
inhibition at 10 µM (human orexin 1 receptor): 33%
Ki (human orexin 2 receptor): 393 nM

Cc1cc(C)nc(N2CCC3(CCN(Cc4c[nH]c5ccccc45)C3=O)C2)n1 (stereo not shown) [Example 5.7, 2-((1H-Indol-3-yl)methyl)-7-(4,6-dimethylpyrimidin-2-yl)-2,7-diazaspiro[4.4]nonan-1-one]
Ki (human orexin 1 receptor): 2130 nM
Ki (human orexin 2 receptor): 249 nM

O=C1N(Cc2c[nH]c3ccccc23)CCC12CCN(c1nc3ccccc3o1)C2 (stereo not shown) [Example 5.8, 2-((1H-Indol-3-yl)methyl)-7-(benzo[d]oxazol-2-yl)-2,7-diazaspiro[4.4]nonan-1-one]
Ki (human orexin 1 receptor): 739 nM
Ki (human orexin 2 receptor): 304 nM

Cc1cc(C)nc(N2CCC3(CCN(Cc4cccc5[nH]ccc45)C3=O)C2)n1 (stereo not shown) [Example 5.9, 2-((1H-Indol-4-yl)methyl)-7-(4,6-dimethylpyrimidin-2-yl)-2,7-diazaspiro[4.4]nonan-1-one]
inhibition at 10 µM (human orexin 1 receptor): < 10%
Ki (human orexin 2 receptor): 1290 nM

COc1cc(C)nc(N2CCC3(CCN(Cc4cccc5[nH]ccc45)C3=O)C2)n1 (stereo not shown) [Example 5.10, 2-((1H-Indol-4-yl)methyl)-7-(4-methoxy-6-methylpyrimidin-2-yl)-2,7-diazaspiro[4.4]nonan-1-one]
Ki (human orexin 1 receptor): 1340 nM
Ki (human orexin 2 receptor): 629 nM

COc1ccnc(N2CCC3(CCN(Cc4c[nH]c5ncccc45)C3=O)C2)n1 (stereo not shown) [Example 5.11, 2-((1H-Pyrrolo[2,3-b]pyridin-3-yl)methyl)-7-(4-methoxypyrimidin-2-yl)-2,7-diazaspiro[4.4]nonan-1-one]
inhibition at 10 µM (human orexin 1 receptor): < 10%
inhibition at 10 µM (human orexin 2 receptor): 26%

COc1ccnc(N2CCC3(CCN(Cc4n[nH]c5ccccc45)C3=O)C2)n1 (stereo not shown) [Example 5.12, 2-((1H-Indazol-3-yl)methyl)-7-(4-methoxypyrimidin-2-yl)-2,7-diazaspiro[4.4]nonan-1-one]
inhibition at 10 µM (human orexin 1 receptor): 40%
Ki (human orexin 2 receptor): 711 nM

COc1ccnc(N2CCC3(CCN(Cc4ccccc4-c4nc(C)no4)C3=O)C2)n1 (stereo not shown) [Example 5.13, 7-(4-Methoxypyrimidin-2-yl)-2-(2-(3-methyl-1,2,4-oxadiazol-5-yl)benzyl)-2,7-diazaspiro[4.4]nonan-1-one]
Ki (human orexin 1 receptor): 4160 nM
Ki (human orexin 2 receptor): 673 nM

COc1cccc(-c2n[nH]nc2CN2CCC3(CCN(c4nccc(OC)n4)C3)C2=O)c1 (stereo not shown) [Example 5.14, 2-((5-(3-Methoxyphenyl)-2H-1,2,3-triazol-4-yl)methyl)-7-(4-methoxypyrimidin-2-yl)-2,7-diazaspiro[4.4]nonan-1-one]
Ki (human orexin 1 receptor): 544 nM
Ki (human orexin 2 receptor): 146 nM

O=C1N(Cc2c[nH]c3ccccc23)CCC12CCN(c1nc3cc(Cl)ccc3o1)C2 (stereo not shown) [Example 5.15, 2-((1H-Indol-3-yl)methyl)-7-(5-chlorobenzo[d]oxazol-2-yl)-2,7-diazaspiro[4.4]nonan-1-one]
inhibition at 10 µM (human orexin 1 receptor): 29%
inhibition at 10 µM (human orexin 2 receptor): 37%

O=C1N(Cc2c[nH]c3ccccc23)CCC12CCN(c1ncc3cc(F)ccc3n1)C2 (stereo not shown) [Example 5.16, 2-((1H-Indol-3-yl)methyl)-7-(6-fluoroquinazolin-2-yl)-2,7-diazaspiro[4.4]nonan-1-one]
Ki (human orexin 1 receptor): 1120 nM
Ki (human orexin 2 receptor): 509 nM

O=C1N(Cc2c[nH]c3ccccc23)CCC12CCN(c1cc(C(F)(F)F)ncn1)C2 (stereo not shown) [Example 5.17, 2-((1H-Indol-3-yl)methyl)-7-(6-(trifluoromethyl)pyrimidin-4-yl)-2,7-diazaspiro[4.4]nonan-1-one]
inhibition at 10 µM (human orexin 1 receptor): 49%
Ki (human orexin 2 receptor): 1790 nM

O=C1N(Cc2c[nH]c3ccccc23)CCC12CCN(c1nccc(-n3ccnc3)n1)C2 (stereo not shown) [Example 5.18, 7-(4-(1H-imidazol-1-yl)pyrimidin-2-yl)-2-((1H-indol-3-yl)methyl)-2,7-diazaspiro[4.4]nonan-1-one]
Ki (human orexin 1 receptor): 1890 nM
Ki (human orexin 2 receptor): 1240 nM

O=C1N(Cc2c[nH]c3ccccc23)CCC12CCN(c1ccnc(-n3ccnc3)n1)C2 (stereo not shown) [Example 5.19, 7-(2-(1H-imidazol-1-yl)pyrimidin-4-yl)-2-((1H-indol-3-yl)methyl)-2,7-diazaspiro[4.4]nonan-1-one]
Ki (human orexin 1 receptor): 1190 nM
Ki (human orexin 2 receptor): 665 nM

O=C1N(Cc2c[nH]c3ccccc23)CCC12CCN(c1ccc(-n3ccnc3)nn1)C2 (stereo not shown) [Example 5.20, 7-(6-(1H-imidazol-1-yl)pyridazin-3-yl)-2-((1H-indol-3-yl)methyl)-2,7-diazaspiro[4.4]nonan-1-one]
inhibition at 10 µM (human orexin 1 receptor): 34%
inhibition at 10 µM (human orexin 2 receptor): 33%

COc1cc(N2CCC3(CCN(Cc4c[nH]c5ccccc45)C3=O)C2)nc(C2CC2)n1 (stereo not shown) [Example 5.21, 2-((1H-indol-3-yl)methyl)-7-(2-cyclopropyl-6-methoxypyrimidin-4-yl)-2,7-diazaspiro[4.4]nonan-1-one]
Ki (human orexin 1 receptor): 1300 nM
Ki (human orexin 2 receptor): 370 nM

Cn1ccnc1-c1ccnc(N2CCC3(CCN(Cc4c[nH]c5ccccc45)C3=O)C2)n1 (stereo not shown) [Example 5.22, 2-((1H-indol-3-yl)methyl)-7-(4-(1-methyl-1H-imidazol-2-yl)pyrimidin-2-yl)-2,7-diazaspiro[4.4]nonan-1-one]
Ki (human orexin 1 receptor): 923 nM
Ki (human orexin 2 receptor): 489 nM

Cc1cnc(N2CCC3(CCN(Cc4c[nH]c5ccccc45)C3=O)C2)s1 (stereo not shown) [Example 5.23, 2-((1H-indol-3-yl)methyl)-7-(5-methylthiazol-2-yl)-2,7-diazaspiro[4.4]nonan-1-one]
inhibition at 10 µM (human orexin 1 receptor): 67%
Ki (human orexin 2 receptor): 645 nM

O=C1N(Cc2c[nH]c3ccccc23)CCC12CCN(c1cc3c(nn1)CCOC3)C2 (stereo not shown) [Example 5.24, 2-((1H-indol-3-yl)methyl)-7-(7,8-dihydro-5H-pyrano[4,3-c]pyridazin-3-yl)-2,7-diazaspiro[4.4]nonan-1-one]
inhibition at 10 µM (human orexin 1 receptor): 25%
inhibition at 10 µM (human orexin 2 receptor): 54%

Cc1cc(N2CCOCC2)nc(N2CCC3(CCN(Cc4c[nH]c5ccccc45)C3=O)C2)n1 (stereo not shown) [Example 5.25, 2-((1H-indol-3-yl)methyl)-7-(4-methyl-6-morpholinopyrimidin-2-yl)-2,7-diazaspiro[4.4]nonan-1-one]
inhibition at 10 µM (human orexin 1 receptor): 71%
inhibition at 10 µM (human orexin 2 receptor): 66%

Cc1nc(N2CCOCC2)cc(N2CCC3(CCN(Cc4c[nH]c5ccccc45)C3=O)C2)n1 (stereo not shown) [Example 5.26, 2-((1H-indol-3-yl)methyl)-7-(2-methyl-6-morpholinopyrimidin-4-yl)-2,7-diazaspiro[4.4]nonan-1-one]
inhibition at 10 µM (human orexin 1 receptor): 37%
inhibition at 10 µM (human orexin 2 receptor): 47%

Cc1cccc(N2CCC3(CCN(Cc4c[nH]c5ccccc45)C3=O)C2)n1 (stereo not shown) [Example 5.27, 2-((1H-indol-3-yl)methyl)-7-(6-methylpyridin-2-yl)-2,7-diazaspiro[4.4]nonan-1-one]
Ki (human orexin 1 receptor): 2390 nM
Ki (human orexin 2 receptor): 298 nM

Cc1ccnc(N2CCC3(CCN(Cc4c[nH]c5ccccc45)C3=O)C2)c1 (stereo not shown) [Example 5.28, 2-((1H-indol-3-yl)methyl)-7-(4-methylpyridin-2-yl)-2,7-diazaspiro[4.4]nonan-1-one]
inhibition at 10 µM (human orexin 1 receptor): 34%
Ki (human orexin 2 receptor): 182 nM
